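Values below derive from 48-hour exposures of cells grown in 96-well plates, with endpoints linearly interpolated between the two concentrations bracketing the appropriate inhibition level. GI50: concentration for 50% inhibition of growth.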 Active and inactive are the calls of the source. Cut-off read from the data, not from the text of the source: active = GI50 up to about 1.1 µM and inactive = higher.
Assays:
Experiment in all cases: inhibition of tumour cell growth, NCI panel, 48 h
[1] = test system: BT-549
[2] = test system: CCRF-CEM
[3] = test system: EKVX
[4] = test system: CAKI-1
[5] = test system: M14
[6] = test system: TK-10
[7] = test system: NCI-H522
[8] = test system: DU-145
[9] = test system: SNB-19
[10] = test system: UO-31
[11] = test system: Malme-3M
[12] = test system: HCT-15
[13] = test system: HCT-116
[14] = test system: LOX IMVI
[15] = test system: PC-3
[16] = test system: KM12
[17] = test system: SNB-75
[18] = test system: OVCAR-4
[19] = test system: SK-MEL-2

| Compound | GI50 [1] | GI50 [2] | GI50 [3] | GI50 [4] | GI50 [5] | GI50 [6] | GI50 [7] | GI50 [8] | GI50 [9] | GI50 [10] | GI50 [11] | GI50 [12] [µM] | GI50 [13] | GI50 [14] | GI50 [15] | GI50 [16] | GI50 [17] | GI50 [18] | GI50 [19] |
| --- | --- | --- | --- | --- | --- | --- | --- | --- | --- | --- | --- | --- | --- | --- | --- | --- | --- | --- | --- |
| CC1(C(=O)O)CCC2(C)CCC3(C)C(=CC(=O)C4C5(C)CCC(O)C(C)(C)C5CCC43C)C2C1 (stereo not drawn) | 11.7 µM (inactive) | 30.9 µM (inactive) | 34.9 µM (inactive) | 24.4 µM (inactive) | 36.3 µM (inactive) | 35.7 µM (inactive) | 22.7 µM (inactive) | 29.6 µM (inactive) | 20.6 µM (inactive) | 23.6 µM (inactive) | > 100 µM (inactive) | 34.8 | 23.4 µM (inactive) | 22.6 µM (inactive) | 36.1 µM (inactive) | 18.3 µM (inactive) | 33.8 µM (inactive) | 42.8 µM (inactive) | 21.8 µM (inactive) |
| COc1ccc(N2C=Nn3c(nc4sc(C)c(C)c4c3=O)C2)cc1 | > 100 µM (inactive) | > 100 µM (inactive) | > 100 µM (inactive) | > 100 µM (inactive) | > 100 µM (inactive) | > 100 µM (inactive) | > 100 µM (inactive) | > 100 µM (inactive) | > 100 µM (inactive) | > 100 µM (inactive) | > 100 µM (inactive) | > 100 | > 100 µM (inactive) | > 100 µM (inactive) | > 100 µM (inactive) | > 100 µM (inactive) | > 100 µM (inactive) | > 100 µM (inactive) | > 100 µM (inactive) |
| OCCc1ccsc1-c1sc(-c2cc(CCO)c(-c3sc(-c4cc(CCO)c(-c5sccc5CCO)s4)cc3CCO)s2)cc1CCO | 0.634 µM (active) | 0.647 µM (active) | 1.26 µM (inactive) | 1.48 µM (inactive) | 1.82 µM (inactive) | 1.55 µM (inactive) | 0.807 µM (active) | 1.34 µM (inactive) | 1.7 µM (inactive) | 1.29 µM (inactive) | 1.14 µM (inactive) | 1.03 | 0.889 µM (active) | 0.617 µM (active) | 1.28 µM (inactive) | 0.621 µM (active) | 1.27 µM (inactive) | 1.16 µM (inactive) | 1.68 µM (inactive) |
| Cc1c(-c2ccccc2)c(C#N)c2nnn(-c3ccccc3)c(=O)n12 | > 100 µM (inactive) | 34.8 µM (inactive) | > 100 µM (inactive) | > 100 µM (inactive) | 67.1 µM (inactive) | > 100 µM (inactive) | 44.9 µM (inactive) | > 100 µM (inactive) | > 100 µM (inactive) | > 100 µM (inactive) | 97.9 µM (inactive) | 36 | > 100 µM (inactive) | 48.4 µM (inactive) | 78.9 µM (inactive) | 75.7 µM (inactive) | > 100 µM (inactive) | > 100 µM (inactive) | > 100 µM (inactive) |
| Cc1ccc(-c2cc(-c3cc(-c4ccc(C)cc4C)[nH]n3)[nH]n2)c(C)c1 | 21.9 µM (inactive) | 0.71 µM (active) | 20.7 µM (inactive) | 18.8 µM (inactive) | 15.8 µM (inactive) | 15.6 µM (inactive) | 13.9 µM (inactive) | 16.3 µM (inactive) | 18.5 µM (inactive) | 23 µM (inactive) | 11.1 µM (inactive) | 15.4 | 16 µM (inactive) | 19.9 µM (inactive) | 15.1 µM (inactive) | 17.7 µM (inactive) | 18.3 µM (inactive) | 8.71 µM (inactive) | 18.2 µM (inactive) |
| CCOC(=O)CCC(C(=O)OCC)n1nnc2ccc(Nc3c(C)[n+]([O-])c4ccc(Cl)cc4[n+]3[O-])cc21 (stereo not drawn) | 54.3 µM (inactive) | 35 µM (inactive) | 17.1 µM (inactive) | 49.2 µM (inactive) | 37.5 µM (inactive) | 66.2 µM (inactive) | 43.4 µM (inactive) | 50.6 µM (inactive) | > 100 µM (inactive) | 42.2 µM (inactive) | > 100 µM (inactive) | 27.9 | 40.2 µM (inactive) | 28.8 µM (inactive) | > 100 µM (inactive) | 91.2 µM (inactive) | 31.4 µM (inactive) | 33.8 µM (inactive) | 30.9 µM (inactive) |
| CC(C)C1OCC(CO)CO1 (stereo not drawn) | 31.6 µM (inactive) | > 100 µM (inactive) | > 100 µM (inactive) | > 100 µM (inactive) | > 100 µM (inactive) | > 100 µM (inactive) | > 100 µM (inactive) | > 100 µM (inactive) | > 100 µM (inactive) | > 100 µM (inactive) | > 100 µM (inactive) | > 100 | > 100 µM (inactive) | > 100 µM (inactive) | > 100 µM (inactive) | > 100 µM (inactive) | > 100 µM (inactive) | > 100 µM (inactive) | > 100 µM (inactive) |
